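Briefly, cells in 96-well plates were exposed to five compound concentrations for 48 h, and endpoints were estimated by linear interpolation. Abbreviation: GI50, concentration required for 50% inhibition of growth.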 Active and inactive are the calls of the source. No stated cut-off is given here; in the data, active = GI50 up to about 1.1 µM and inactive = higher.
What was measured:
Experiment in all cases: NCI tumour cell line growth inhibition, 48 h
786-0 = test system: 786-0
A498 = test system: A498
ACHN = test system: ACHN
DLD-1 = test system: DLD-1
EKVX = test system: EKVX
HCT-116 = test system: HCT-116
HOP-92 = test system: HOP-92
HT-29 = test system: HT-29
M19-MEL = test system: M19-MEL
MOLT-4 = test system: MOLT-4
Malme-3M = test system: Malme-3M
NCI-H460 = test system: NCI-H460
OVCAR-4 = test system: OVCAR-4
OVCAR-5 = test system: OVCAR-5
OVCAR-8 = test system: OVCAR-8
RXF 393 = test system: RXF 393
SF-295 = test system: SF-295
SK-MEL-5 = test system: SK-MEL-5
SNB-75 = test system: SNB-75
UACC-257 = test system: UACC-257

Measured: GI50

Cc1ccc(S(=O)(=O)N/N=c2\c(C)c(C3=NS(=O)(=O)c4cc(S(N)(=O)=O)c(Cl)cc4N3)oc3c(Cl)cc(Cl)cc23)cc1
inactive: 786-0 > 100 µM | A498 > 100 µM | ACHN > 100 µM | DLD-1 > 100 µM | EKVX > 100 µM | HCT-116 65.5 µM | HOP-92 27.7 µM | HT-29 49.9 µM | M19-MEL > 100 µM | MOLT-4 > 100 µM | Malme-3M > 100 µM | NCI-H460 60.7 µM | OVCAR-4 > 100 µM | OVCAR-5 > 100 µM | OVCAR-8 > 100 µM | RXF 393 59.7 µM | SF-295 > 100 µM | SK-MEL-5 > 100 µM | SNB-75 > 100 µM | UACC-257 > 100 µM

NC(=S)Nc1nnc(-c2ccc(-c3nnc(NC(N)=S)o3)cc2)o1
inactive: 786-0 > 100 µM | A498 > 100 µM | ACHN > 100 µM | DLD-1 > 100 µM | EKVX > 100 µM | HCT-116 > 100 µM | HOP-92 > 100 µM | HT-29 > 100 µM | M19-MEL > 100 µM | MOLT-4 > 100 µM | Malme-3M > 100 µM | NCI-H460 > 100 µM | OVCAR-4 > 100 µM | OVCAR-5 > 100 µM | OVCAR-8 > 100 µM | RXF 393 > 100 µM | SF-295 > 100 µM | SK-MEL-5 > 100 µM | SNB-75 > 100 µM | UACC-257 > 100 µM

CCCCCCCC(=O)OC[C@H](C[As](=O)(O)O)OC(=O)CCCCCCC
inactive: 786-0 13.4 µM | A498 11.5 µM | ACHN 10.7 µM | DLD-1 14.1 µM | EKVX 21.1 µM | HCT-116 5.24 µM | HOP-92 14.4 µM | HT-29 12.2 µM | M19-MEL 13.3 µM | MOLT-4 2.15 µM | Malme-3M 12.7 µM | OVCAR-4 12.2 µM | OVCAR-8 13.4 µM | RXF 393 3.92 µM | SF-295 14.4 µM | SK-MEL-5 13.6 µM | SNB-75 11.1 µM | UACC-257 12.8 µM

CC(OC1CC(=O)CC2C(=O)C=CC(=O)C12)c1ccccc1 (configuration not stated)
inactive: 786-0 13.9 µM | A498 18.1 µM | ACHN 11.2 µM | DLD-1 12.9 µM | EKVX 16.2 µM | HCT-116 9.75 µM | HOP-92 1.42 µM | HT-29 17.7 µM | M19-MEL 16.1 µM | MOLT-4 4.97 µM | Malme-3M 20.4 µM | NCI-H460 > 42.9 µM | OVCAR-4 18.3 µM | OVCAR-5 17.6 µM | OVCAR-8 15.3 µM | RXF 393 18.9 µM | SF-295 16.6 µM | SK-MEL-5 18.8 µM | SNB-75 25.6 µM | UACC-257 19.1 µM

COc1ccc(OC)c(/C=C(/C#N)c2ccccc2)c1
inactive: 786-0 19 µM | A498 20.2 µM | ACHN 49 µM | DLD-1 28.7 µM | EKVX 30.6 µM | HCT-116 49.3 µM | HOP-92 17.7 µM | HT-29 6.52 µM | M19-MEL 22.2 µM | MOLT-4 12.9 µM | Malme-3M 35.6 µM | NCI-H460 15.8 µM | OVCAR-4 15.9 µM | OVCAR-5 56 µM | OVCAR-8 37.2 µM | RXF 393 10.2 µM | SF-295 39.4 µM | SK-MEL-5 13.2 µM | SNB-75 10.8 µM

COc1ccc(OC)c2c(=S)c3ccccc3[nH]c12
inactive: 786-0 > 91.8 µM | A498 > 92.3 µM | ACHN 53 µM | DLD-1 > 100 µM | EKVX > 90.2 µM | HCT-116 64.6 µM | HOP-92 > 100 µM | HT-29 64.6 µM | M19-MEL > 100 µM | MOLT-4 39.4 µM | Malme-3M 84.9 µM | NCI-H460 > 63 µM | OVCAR-4 > 100 µM | OVCAR-5 > 94.8 µM | OVCAR-8 > 73.5 µM | RXF 393 54.6 µM | SF-295 92.3 µM | SK-MEL-5 22.2 µM | SNB-75 > 79.6 µM | UACC-257 > 73.8 µM

COc1cc2c(cc1OC)C(N(C)C)C(c1ccccc1)=C2Cl (configuration not stated)
inactive: 786-0 25.3 µM | A498 22.5 µM | DLD-1 15.1 µM | HOP-92 17.9 µM | HT-29 19.9 µM | M19-MEL 18.5 µM | MOLT-4 12.5 µM | NCI-H460 19 µM | OVCAR-4 27.4 µM | OVCAR-5 34 µM | OVCAR-8 18.9 µM | RXF 393 15.5 µM | SF-295 22.8 µM | SNB-75 20 µM | UACC-257 18 µM
